{"source": "patent US20210123061A1", "about": "“METHODS AND COMPOSITIONS FOR TREATING INFLAMMATORY DISEASE OR DISORDER” (THE BRIGHAM AND WOMEN'S HOSPITAL, INC., priority 2018, published 2021)", "test_system": "STAT1 phosphorylation (Ser727, Tyr701)", "experiment": "Immunoblot of STAT1 phosphorylation in IFN-γ-stimulated PBMC-derived macrophages", "type": "cell-based, human", "settings": "pre-treatment two hours, 60 minutes of IFN-γ stimulation, vs DMSO", "protocol": "FIGS. 3A-3F show RSK1 is activated through JAK signaling and its inhibition suppresses STAT1 phosphorylation at Ser727 in human primary macrophages in response to IFN-γ. (FIG. 3A) PBMC-derived macrophages were pre-treated with DMSO or 10 μM a pan-JAK inhibitor, pyridone-6, for two hours and then stimulated with IFN-γ for indicated time under serum starvation. Cell lysates were subjected to immunoprecipitation with normal IgG or anti-RSK1 followed by immunoblot analysis using the indicated antibodies. WCL, whole cell lysate. N=3 donors. (FIG. 3B) Immunoblots of cell lysates from macrophages that were transfected with control siRNA or RSK1 siRNA followed by stimulation with IFN-γ for indicated time under serum starvation. N=2 donors. (FIG. 3C) Immunoblots of cell lysates from macrophages that were pre-treated with DMSO or BI-D1870 for two hours and subsequently left unstimulated or stimulated with IFN-γ for 1 hour under serum starvation. (FIG. 3D) Densitometric based quantification (ImageJ Software) of STAT1-pSer727 in panel (FIG. 3C) plus three additional donors. The phosphorylation levels in cells pretreated with DMSO and stimulated were defined as 1.0. Data are means±SE. N=6 donors. **P<0.01 indicate significance for phosphorylation levels compared to control (treatment with DMSO and IFN-γ) by Dunnett's comparison test. (FIG. 3E) Macrophages were treated with DMSO or BI-d1870 for two hours followed by IFN-γ stimulation under serum starvation. Cell lysates were subjected to immunoprecipitation with normal IgG or anti-STAT1-pSer727 followed by SYPRO ruby stain or immunoblot analysis with the indicated antibodies. Immunoprecipitants in the gel (red square) were in-gel digested for parallel reaction monitoring (PRM) mass spectrometry. (FIG. 3F) Quantification of PRM ions (MS/MS ions) of the indicated STAT1 peptide harboring a phosphorylation at Ser727 (and oxidized methionine, m), generated from the digest of panel […].\nCell culture of human PBMC-derived primary macrophages. […]", "data": [{"compound": "CC(C)CCN1c2nc(Nc3cc(F)c(O)c(F)c3)ncc2N(C)C(=O)C1C", "note": "(centres unmarked) [BI-D1870]", "values": [{"measurement": "phospho-STAT1-Ser727 signal", "value": "attenuated signal"}, {"measurement": "phospho-STAT-Tyr701 signal", "value": "no change"}]}]}
